Experiments:
[1] = pH 7.4
HeLa cells = settings: 100 μM
[2] = tested on: 45 receptors and channels; settings: 10 μM; radioligand binding and functional assays
[3] = MLM incubation
in vitro = settings: PAMPA, pH 7.4
[4] = tested on: Plk1 localization to centrosomes and kinetochores; test: Plk1 localization and spindle morphology by immunostaining in HeLa cells; assay type: cell-based; settings: 100 μM, 12 h
[5] = mice, 20 mg/kg, IP, whole period of the experiment

## CCCn1c(=O)c2ccccc2n2c(S)nnc12 [Compound 21, 4-Propyl-1-thioxo-2,4-dihydro-[1,2,4]triazolo[4,3-a]quinazolin-5(1H)-one]
[1]
  PAMPA: 370 nm/s
HeLa cells
  ability to induce mitotic arrest and an antiproliferation effect: lacked a detectable level of cellular response
[2]
  potential off-target interactions: not detected

## CCCCn1c(=O)c2ccccc2n2c(S)nnc12 [Compound 23, 4-Butyl-1-thioxo-2,4-dihydro-[1,2,4]triazolo[4,3-a]quinazolin-5(1H)-one]
[1]
  PAMPA: 775 nm/s
[3]
  major metabolite (LC–MS/MS): glucuronidation is the major metabolite

## CCCn1c(=O)c2ccccc2n2c(=S)n(CN(C)C3CC3)nc12 [Compound 35, 2-((Cyclopropyl(methyl)amino)methyl)-4-propyl-1-thioxo-2,4-di-hydro-[1,2,4]triazolo[4,3-a]quinazolin-5(1H)-one]
Aqueous solubility
  Solub. (μg/ml): Insol.

## CCCn1c(=O)c2cc(F)ccc2n2c(=S)[nH]nc12 [Compound 64, 7-Fluoro-4-propyl-1-thioxo-2,4-dihydro-[1,2,4]triazolo[4,3-a]-quinazolin-5(1H)-one]
[1]
  PAMPA: 1950 nm/s
HeLa cells
  ability to induce mitotic arrest and an antiproliferation effect: lacked a detectable level of cellular response

## CN(C)CCn1c(=O)c2cc(F)ccc2n2c(=S)[nH]nc12 [Compound 70, 4-(2-(Dimethylamino)ethyl)-7-fluoro-1-thioxo-2,4-dihydro-[1,2,4]triazolo[4,3-a]quinazolin-5(1H)-one]
In vitro
  Papp: 1770 nm/s

## O=C(Cc1ccc(Br)cc1)NCCCn1c(=O)c2cc(F)ccc2n2c(=S)[nH]nc12 [Compound 125, 2-(4-Bromophenyl)-N-(3-(7-fluoro-5-oxo-1-thioxo-1,2-dihydro-[1,2,4]triazolo[4,3-a]quinazolin-4(5H)-yl)propyl)acetamide]
[1]
  PAMPA: 7670 nm/s

## Cc1ccc(CC(=O)NCCCn2c(=O)c3cc(F)ccc3n3c(=S)[nH]nc23)cc1 [Compound 126, N-(3-(7-Fluoro-5-oxo-1-thioxo-1,2-dihydro-[1,2,4]triazolo[4,3-a]-quinazolin-4(5H)-yl)propyl)-2-(p-tolyl)acetamide]
[1]
  PAMPA: 6210 nm/s

## COc1ccccc1CC(=O)NCCCn1c(=O)c2cc(F)ccc2n2c(=S)[nH]nc12 [Compound 128, N-(3-(7-Fluoro-5-oxo-1-thioxo-1,2-dihydro-[1,2,4]triazolo[4,3-a]-quinazolin-4(5H)-yl)propyl)-2-(2-methoxyphenyl)acetamide]
[1]
  PAMPA: 3790 nm/s

## COc1cccc(CC(=O)NCCCn2c(=O)c3cc(F)ccc3n3c(=S)[nH]nc23)c1 [Compound 129, N-(3-(7-Fluoro-5-oxo-1-thioxo-1,2-dihydro-[1,2,4]triazolo[4,3-a]-quinazolin-4(5H)-yl)propyl)-2-(3-methoxyphenyl)acetamide]
In vitro
  Papp: 3110 nm/s

## COc1ccc(CC(=O)NCCCn2c(=O)c3cc(F)ccc3n3c(=S)[nH]nc23)cc1 [Compound 130, N-(3-(7-Fluoro-5-oxo-1-thioxo-1,2-dihydro-[1,2,4]triazolo[4,3-a]-quinazolin-4(5H)-yl)propyl)-2-(4-methoxyphenyl)acetamide]
[1]
  PAMPA: 2330 nm/s

## O=C(Cc1ccccc1C(F)(F)F)NCCCn1c(=O)c2cc(F)ccc2n2c(=S)[nH]nc12 [Compound 131, N-(3-(7-Fluoro-5-oxo-1-thioxo-1,2-dihydro-[1,2,4]triazolo[4,3-a]-quinazolin-4(5H)-yl)propyl)-2-(2-(trifluoromethyl)phenyl)-acetamide]
[1]
  PAMPA: 8250 nm/s

## N#Cc1ccccc1CC(=O)NCCCn1c(=O)c2cc(F)ccc2n2c(=S)[nH]nc12 [Compound 133, 2-(2-Cyanophenyl)-N-(3-(7-fluoro-5-oxo-1-thioxo-1,2-dihydro-[1,2,4]triazolo[4,3-a]quinazolin-4(5H)-yl)propyl)acetamide]
[1]
  PAMPA: 1560 nm/s

## CC(C)(C)OC(=O)Nc1ccc(CC(=O)NCCCn2c(=O)c3cc(F)ccc3n3c(=S)[nH]nc23)cc1 [Compound 135, tert-Butyl (4-(2-((3-(7-Fluoro-5-oxo-1-thioxo-1,2-dihydro-[1,2,4]-triazolo[4,3-a]quinazolin-4(5H)-yl)propyl)amino)-2-oxoethyl)-phenyl)carbamate]
[1]
  PAMPA: 9100 nm/s

## O=C(Cc1ccccn1)NCCCn1c(=O)c2cc(F)ccc2n2c(=S)[nH]nc12 [Compound 136, N-(3-(7-Fluoro-5-oxo-1-thioxo-1,2-dihydro-[1,2,4]triazolo[4,3-a]-quinazolin-4(5H)-yl)propyl)-2-(pyridine-2-yl)acetamide]
[1]
  PAMPA: 680 nm/s

## O=C(Cc1cccnc1)NCCCn1c(=O)c2cc(F)ccc2n2c(=S)[nH]nc12 [Compound 137, N-(3-(7-Fluoro-5-oxo-1-thioxo-1,2-dihydro-[1,2,4]triazolo[4,3-a]-quinazolin-4(5H)-yl)propyl)-2-(pyridine-3-yl)acetamide]
[1]
  PAMPA: 210 nm/s

## O=C(Cc1ccncc1)NCCCn1c(=O)c2cc(F)ccc2n2c(=S)[nH]nc12 [Compound 138, N-(3-(7-Fluoro-5-oxo-1-thioxo-1,2-dihydro-[1,2,4]triazolo[4,3-a]-quinazolin-4(5H)-yl)propyl)-2-(pyridine-4-yl)acetamide]
[1]
  PAMPA: <10 nm/s

## CCCn1c(=O)c2cccc(F)c2n2c(=S)[nH]nc12 [Compound 139, 9-Fluoro-4-propyl-1-thioxo-2,4-dihydro-[1,2,4]triazolo[4,3-a]-quinazolin-5(1H)-one]
HeLa cells
  ability to induce mitotic arrest and an antiproliferation effect: lacked a detectable level of cellular response

## CCCn1c(=O)c2ccccc2n2c(SC)nnc12 [Compound 143, 1-(Methylthio)-4-propyl-[1,2,4]triazolo[4,3-a]quinazolin-5(4H)-one]
[4]
  spindle bipolarity: significantly compromised
HeLa cells
  ability to induce mitotic arrest and an antiproliferation effect: effectively induced rounded cells with apoptotic or aberrant chromosome morphologies
[5]
  signs of toxicity: no signs of toxicity

## CCCn1c(=O)c2cc(F)ccc2n2c(SC)nnc12 [Compound 144, 7-Fluoro-1-(methylthio)-4-propyl-[1,2,4]triazolo[4,3-a]-quinazolin-5(4H)-one]
HeLa cells
  ability to induce mitotic arrest and an antiproliferation effect: induced mitotic arrest but at a somewhat reduced level

## CCCn1c(=O)c2cccc(F)c2n2c(SC)nnc12 [Compound 145, 9-Fluoro-1-(methylthio)-4-propyl-[1,2,4]triazolo[4,3-a]-quinazolin-5(4H)-one]
HeLa cells
  ability to induce mitotic arrest and an antiproliferation effect: effectively induced rounded cells with apoptotic or aberrant chromosome morphologies
